Test system: LG0567-F671-PDC KRAS tumor spheroid viability
Experiment: Anticancer human tumor LG0567-F671-PDC patient-derived lung adenocarcinoma cell line growth inhibition [KRAS2]
Settings: spheroids with HUVEC and MSC; for IC50: curve of first compound; for viability, T/C: stronger effect = lower value
Procedure, shortened: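 KRAS-mutant tumor cells were grown as spheroids with HUVEC endothelial cells and human MSCs as stroma. Targeted agents were tested alone and with KRAS pathway inhibitors. Doses started at or near clinical Cmax, or 10 microM, descending half-log.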

[1] = second compound 0.1 µM, first compound 0.000316 µM
[2] = second compound 0.1 µM, first compound 0.001 µM
[3] = second compound 0.1 µM, first compound 0.00316 µM
[4] = second compound 0.1 µM, first compound 0.01 µM
[5] = second compound 0.1 µM, first compound 0.0316 µM
[6] = second compound 0.1 µM, first compound 0.1 µM
[7] = second compound 0.316 µM, first compound 0.000316 µM
[8] = second compound 0.316 µM, first compound 0.001 µM
[9] = second compound 0.316 µM, first compound 0.00316 µM
[10] = second compound 0.316 µM, first compound 0.01 µM
[11] = second compound 0.316 µM, first compound 0.0316 µM
[12] = second compound 0.316 µM, first compound 0.1 µM
[13] = second compound 1 µM, first compound 0.000316 µM
[14] = second compound 1 µM, first compound 0.001 µM
[15] = second compound 1 µM, first compound 0.00316 µM
[16] = second compound 1 µM, first compound 0.01 µM
[17] = second compound 1 µM, first compound 0.0316 µM
[18] = second compound 1 µM, first compound 0.1 µM
[19] = second compound 3.16 µM, first compound 0.000316 µM
[20] = second compound 3.16 µM, first compound 0.001 µM
[21] = second compound 3.16 µM, first compound 0.00316 µM
[22] = second compound 3.16 µM, first compound 0.01 µM
[23] = second compound 3.16 µM, first compound 0.0316 µM
[24] = second compound 3.16 µM, first compound 0.1 µM
[25] = second compound 10 µM, first compound 0.000316 µM
[26] = second compound 10 µM, first compound 0.001 µM
[27] = second compound 10 µM, first compound 0.00316 µM
[28] = second compound 10 µM, first compound 0.01 µM
[29] = second compound 10 µM, first compound 0.0316 µM
[30] = second compound 10 µM, first compound 0.1 µM
[31] = second compound 0.1 µM, first compound 0.316 µM
[32] = second compound 0.1 µM, first compound 1 µM
[33] = second compound 0.1 µM, first compound 3.16 µM
[34] = second compound 0.1 µM, first compound 10 µM
[35] = second compound 0.316 µM, first compound 0.316 µM
[36] = second compound 0.316 µM, first compound 1 µM
[37] = second compound 0.316 µM, first compound 3.16 µM
[38] = second compound 0.316 µM, first compound 10 µM
[39] = second compound 1 µM, first compound 0.316 µM
[40] = second compound 1 µM, first compound 1 µM
[41] = second compound 1 µM, first compound 3.16 µM
[42] = second compound 1 µM, first compound 10 µM
[43] = second compound 3.16 µM, first compound 0.316 µM
[44] = second compound 3.16 µM, first compound 1 µM
[45] = second compound 3.16 µM, first compound 3.16 µM
[46] = second compound 3.16 µM, first compound 10 µM
[47] = second compound 10 µM, first compound 0.316 µM
[48] = second compound 10 µM, first compound 1 µM
[49] = second compound 10 µM, first compound 3.16 µM
[50] = second compound 10 µM, first compound 10 µM
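Further: drug exposure lasted seven days after spheroids formed for three days.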
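Wherever viability, T/C is given: 100% = DMSO vehicle control viability.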

Row | Structure (SMILES) | IC50 (second compound 0.1 µM) [nM] | IC50 (second compound 0.316 µM) [nM] | IC50 (second compound 1 µM) [nM] | IC50 (second compound 3.16 µM) [nM] | IC50 (second compound 10 µM) [nM] | viability, T/C [5] [%] | viability, T/C [6] [%] | viability, T/C [11] [%] | viability, T/C [12] [%] | viability, T/C [17] [%] | viability, T/C [18] [%] | viability, T/C [23] [%] | viability, T/C [24] [%] | viability, T/C [29] [%] | viability, T/C [30] [%] | viability, T/C [31] [%] | viability, T/C [32] [%] | viability, T/C [33] [%] | viability, T/C [34] [%] | viability, T/C [35] [%] | further results
1 | CC(C)n1nc(-c2ccc3oc(N)nc3c2)c2c(N)ncnc21 + CC1OCC2(CCN(c3cnc(Sc4ccnc(N)c4Cl)c(N)n3)CC2)C1N | < 0.316 | < 0.316 | < 0.316 | < 0.316 | < 0.316 | 16.2 | 10.6 | 7.3 | 6.32 | 4.63 | 3.58 | 2.37 | 1.36 | 1.59 | 1.8 | – | – | – | – | – | viability, T/C [1]: 43.3%; viability, T/C [2]: 48.6%; viability, T/C [3]: 25.5%; viability, T/C [4]: 18%; viability, T/C [7]: 35.9%; viability, T/C [8]: 29%; viability, T/C [9]: 21%; viability, T/C [10]: 11.8%; viability, T/C [13]: 25.8%; viability, T/C [14]: 18.8%; viability, T/C [15]: 11.4%; viability, T/C [16]: 5.96%; viability, T/C [19]: 17.4%; viability, T/C [20]: 12%; viability, T/C [21]: 6.04%; viability, T/C [22]: 2.59%; viability, T/C [25]: 7.01%; viability, T/C [26]: 5.93%; viability, T/C [27]: 3.89%; viability, T/C [28]: 2.31%
2 | CC1(C)CCC(CN2CCN(c3ccc(C(=O)NS(=O)(=O)c4ccc(NCC5CCOCC5)c([N+](=O)[O-])c4)c(Oc4cnc5[nH]ccc5c4)c3)CC2)=C(c2ccc(Cl)cc2)C1 + CC1OCC2(CCN(c3cnc(Sc4ccnc(N)c4Cl)c(N)n3)CC2)C1N | < 31.6 | < 31.6 | < 31.6 | < 31.6 | < 31.6 | 47 | 44.4 | 42.2 | 31.9 | 27.8 | 26.2 | 22.9 | 24 | 12.2 | 15.4 | 41.8 | 39.1 | 15.4 | 3.67 | 33.4 | viability, T/C [36]: 32.9%; viability, T/C [37]: 9.77%; viability, T/C [38]: 2.77%; viability, T/C [39]: 27%; viability, T/C [40]: 27.1%; viability, T/C [41]: 8.05%; viability, T/C [42]: 1.79%; viability, T/C [43]: 18.3%; viability, T/C [44]: 16.1%; viability, T/C [45]: 2.78%; viability, T/C [46]: 2.97%; viability, T/C [47]: 11.1%; viability, T/C [48]: 10.7%; viability, T/C [49]: 2.4%; viability, T/C [50]: 0.54%
3 | COc1cc(Nc2ncc3c(n2)-c2ccc(Cl)cc2C(c2c(F)cccc2OC)=NC3)ccc1C(=O)O + CC1OCC2(CCN(c3cnc(Sc4ccnc(N)c4Cl)c(N)n3)CC2)C1N | 204 | < 31.6 | < 31.6 | < 31.6 | < 31.6 | 58.7 | 49.6 | 25.7 | 26 | 17.6 | 19.2 | 12.1 | 8.31 | 4.83 | 3.93 | 45.7 | 47.1 | 40.3 | 31.7 | 21.7 | viability, T/C [36]: 22.8%; viability, T/C [37]: 23.8%; viability, T/C [38]: 18.8%; viability, T/C [39]: 18.1%; viability, T/C [40]: 18.5%; viability, T/C [41]: 17.2%; viability, T/C [42]: 14.9%; viability, T/C [43]: 8.93%; viability, T/C [44]: 8.9%; viability, T/C [45]: 4.29%; viability, T/C [46]: 5.34%; viability, T/C [47]: 3.68%; viability, T/C [48]: 3.68%; viability, T/C [49]: 3.65%; viability, T/C [50]: 4.21%
4 | COc1cc2nccc(Oc3ccc(NC(=O)C4(C(=O)Nc5ccc(F)cc5)CC4)cc3)c2cc1OC + CC1OCC2(CCN(c3cnc(Sc4ccnc(N)c4Cl)c(N)n3)CC2)C1N | < 31.6 | < 31.6 | < 31.6 | < 31.6 | < 31.6 | 54 | 50.4 | 33 | 30.9 | 25.7 | 22.8 | 19.6 | 15.2 | 13.1 | 9.16 | 33.3 | 31.5 | 30.3 | 88.4 | 26.6 | viability, T/C [36]: 20.9%; viability, T/C [37]: 13.3%; viability, T/C [38]: 69.7%; viability, T/C [39]: 18.4%; viability, T/C [40]: 13.8%; viability, T/C [41]: 9.19%; viability, T/C [42]: 43.3%; viability, T/C [43]: 8.47%; viability, T/C [44]: 6.57%; viability, T/C [45]: 6.28%; viability, T/C [46]: 25.8%; viability, T/C [47]: 8.96%; viability, T/C [48]: 6.33%; viability, T/C [49]: 3.72%; viability, T/C [50]: 23.3%
5 | Cn1ncnc1[C@H]1c2n[nH]c(=O)c3cc(F)cc(c23)N[C@@H]1c1ccc(F)cc1 + CC1OCC2(CCN(c3cnc(Sc4ccnc(N)c4Cl)c(N)n3)CC2)C1N | < 0.316 | < 0.316 | < 0.316 | < 0.316 | < 0.316 | 57.3 | 54.9 | 32.8 | 35.2 | 22.5 | 23.3 | 12 | 13.8 | 8.87 | 7.89 | – | – | – | – | – | viability, T/C [1]: 48.9%; viability, T/C [2]: 53.1%; viability, T/C [3]: 52.4%; viability, T/C [4]: 56.4%; viability, T/C [7]: 47%; viability, T/C [8]: 34.5%; viability, T/C [9]: 29.1%; viability, T/C [10]: 36.4%; viability, T/C [13]: 29.4%; viability, T/C [14]: 25.9%; viability, T/C [15]: 21.9%; viability, T/C [16]: 18.9%; viability, T/C [19]: 24.4%; viability, T/C [20]: 19.1%; viability, T/C [21]: 19.1%; viability, T/C [22]: 15.3%; viability, T/C [25]: 11.2%; viability, T/C [26]: 12.2%; viability, T/C [27]: 15.7%; viability, T/C [28]: 9.32%

From PubChem BioAssay AID1963856 (Molecular Pharmacology Branch, DTP, NCI, 2024)
